Like-named read-outs stand apart in the source and are kept apart here.

The target of assay [1] is T1, TRPV1 (Homo sapiens, UniProt Q8NER1).
T1 construct: expressed in transfected cells
The experiment in a line: TRPV1 enhancement, enhancer added after TRPV1 activator capsaicin. Format: cell-based. On the procedure: In order to determine whether TRPV1 is activated, the intracellular calcium ion (Ca^+2) levels in TRPV1 receptors is measured. […] (human embryonic kidney) cells stably transfected with human TRPV1 are grown in 15 ml growth medium [high glucose DMEM (Dulbecco's Modification of Eagle's Medium) supplemented with 10% FBS (fetal bovine serum), 100 μg/ml Penicillin/streptomycin, 100 μg/ml G418] in a 75 Cm^2 flask for 3 days at 33° C. in a mammalian cell culture incubator set at 5% CO2. Cells are detached with addition of 10 ml of PBS (phosphate buffered saline) by hand shaking gently. Cells are transferred to a 50 ml tube and centrifuged at 850 rpm for 3 minutes to remove PBS. After centrifugation, a pellet of cells is formed in the bottom of the tube separating them from the supernatant solution. […] Fluo-4 is a fluorescent dye used for quantifying cellular Ca^2+ concentrations in the 100 nM to 1 microM range. At the end of the 30 minutes, 45 ml of assay buffer [1×HBSS (Hank's Balanced Salt Solution), 20 mM HEPES (4-(2-Hydroxyethyl)-1-piperazineethanesulfonic acid)] is added to wash cells and the resulting combination is then centrifuged at 850 rpm for 3 minutes to remove excess buffer and Fluo-4 AM calcium indicator.
[…] […] For determining the direct effect of test compounds on TRPV1, fluorescence is measured immediately after addition of each compound.

Assay [2] is described as follows: Burning sensation on the standard Scoville hotness scale.
The target of assay [3] is T1, TRPV1. The experiment in a line: TRPV1 enhancement, TRPV1 activator VBE and enhancer added together. Format: cell-based. As to conditions: VBE 3.5 microMolar. On the procedure:
In order to determine whether TRPV1 is activated, the intracellular calcium ion (Ca^+2) levels in TRPV1 receptors is measured. […] (human embryonic kidney) cells stably transfected with human TRPV1 are grown in 15 ml growth medium [high glucose DMEM (Dulbecco's Modification of Eagle's Medium) supplemented with 10% FBS (fetal bovine serum), 100 μg/ml Penicillin/streptomycin, 100 μg/ml G418] in a 75 Cm^2 flask for 3 days at 33° C. in a mammalian cell culture incubator set at 5% CO2. Cells are detached with addition of 10 ml of PBS (phosphate buffered saline) by hand shaking gently. Cells are transferred to a 50 ml tube and centrifuged at 850 rpm for 3 minutes to remove PBS. After centrifugation, a pellet of cells is formed in the bottom of the tube separating them from the supernatant solution. The supernatant is discarded and the cell pellet is suspended in 1 ml of fresh growth medium to which 5 μl (12.5 μg) of Fluo-4 AM (Molecular Probes, Inc.) calcium indicator is added and incubated for 30 min with gentle shaking. Fluo-4 is a fluorescent dye used for quantifying cellular Ca^2+ concentrations in the 100 nM to 1 microM range. At the end of the 30 minutes, 45 ml of assay buffer [1×HBSS (Hank's Balanced Salt Solution), 20 mM HEPES (4-(2-Hydroxyethyl)-1-piperazineethanesulfonic acid)] is added to wash cells and the resulting combination is then centrifuged at 850 rpm for 3 minutes to remove excess buffer and Fluo-4 AM calcium indicator.
The pellet cells are re-suspended in 10 ml assay buffer and 90 μl aliquots (˜50,000 cells) per well delivered to a 96-well assay plate containing 10 μl of test compounds (1 mM in assay buffer, final concentration 100 μM) or buffer control and incubated at room temperature for 30 minutes. After 30 minutes, the plate is placed into a fluorometric imaging plate reader (FLIPR^384 from Molecular Devices) and basal fluorescence recorded (excitation wave length 488 nm and emission wave length 510 nm). The FLIPR assay is an accepted method for detecting changes in intracellular calcium concentration. Then 20 μl of the molecule being tested as a TRPV1 activator is added and fluorescence recorded. For determining the direct effect of test compounds on TRPV1, fluorescence is measured immediately after addition of each compound. Additional discussion of the FLIPR method can be found in Smart et al., Characterization using FLIPR of human vanilloid VR1 receptor pharmacology, European Journal of Pharmacology 417, 51-58 (2001) and Liu et al., Development and validation of a platelet calcium flux assay using a fluorescent imaging plate reader, Analytical Biochemistry 357, 216-224 (2006).
In a separate test, the TRPV1 activator (VBE) and the enhancer are added together. […] See the chart below.

In assay [4] the target is T1, TRPV1. Description: FLIPR calcium flux assay for TRPV1 activation in transfected HEK cells. Format: cell-based. On the procedure: The term “TRPV1 activator” as used herein refers to any component which at a concentration of 1 mM gives a calcium flux count of at least 1000 counts above the background level of calcium present in the cell according to the FLIPR method as discussed herein. The term “count” is defined as the change in fluorescence of the transfected cell lines due to the influx of calcium across the cell membrane, which reacts with the calcium sensitive dye present within the cells.
In order to determine whether TRPV1 is activated, the intracellular calcium ion (Ca^+2) levels in TRPV1 receptors is measured. […] (human embryonic kidney) cells stably transfected with human TRPV1 are grown in 15 ml growth medium [high glucose DMEM (Dulbecco's Modification of Eagle's Medium) supplemented with 10% FBS (fetal bovine serum), 100 μg/ml Penicillin/streptomycin, 100 μg/ml G418] in a 75 Cm^2 flask for 3 days at 33° C. in a mammalian cell culture incubator set at 5% CO2. Cells are detached with addition of 10 ml of PBS (phosphate buffered saline) by hand shaking gently. Cells are transferred to a 50 ml tube and centrifuged at 850 rpm for 3 minutes to remove PBS. […] Fluo-4 is a fluorescent dye used for quantifying cellular Ca^2+ concentrations in the 100 nM to 1 microM range. […]
The pellet cells are re-suspended in 10 ml assay buffer and 90 μl aliquots (˜50,000 cells) per well delivered to a 96-well assay plate containing 10 μl of test compounds (1 mM in assay buffer, final concentration 100 μM) or buffer control and incubated at room temperature for 30 minutes. After 30 minutes, the plate is placed into a fluorometric imaging plate reader (FLIPR^384 from Molecular Devices) and basal fluorescence recorded (excitation wave length 488 nm and emission wave length 510 nm). […] Then 20 μl of the molecule being tested as a TRPV1 activator is added and fluorescence recorded. For determining the direct effect of test compounds on TRPV1, fluorescence is measured immediately after addition of each compound. […]

Assay [5] is described as follows: Consumer Test I: panelists brush with dentifrice and rate bothersome and bad aftertaste. As to conditions: in dentifrice. Format: in vivo, human. Here is the method: In order to show the effect of the addition of a TRPV1 activator and/or Vanitrope on the perception of taste in an oral care composition, the following compositions are made and given to consumers to sample.
The base of the control dentifrice (i.e. everything but the flavor) is made via vacuum mixing. The flavor is added in a second step my speed mixing to complete the control. The additional compositions are then made by speed mixing into the control base the TRPV1 activator and/or vanitrope plus flavor at the stated levels. The samples are then placed in tubes and delivered to the testing facility.
At the testing facility, panelists are provided with a generic brush with 1.0 g of toothpaste. Each panelist has an individual sink, mirror, disposable cup and paper towels. They are asked to brush as they normally would at home. Before and after brushing the panelist will answer a series of questions relating to their experience with the toothpaste. The panelists are asked to comment on their experience right after brushing and then at each hour interval for three hours. The comments from the consumers are translated into numerical values for comparison. The results for the above compositions as it related to bothersome and bad aftertaste are shown below.
Also included in the above testing are combinations of TRPV1 activators and/or vanitrope. The formulations for these tests are below and the control is the same as that listed above.

Setting [6] is: both bothersome and bad aftertaste, each of hours 1-3.

T1 sequence (Q8NER1 whole entry): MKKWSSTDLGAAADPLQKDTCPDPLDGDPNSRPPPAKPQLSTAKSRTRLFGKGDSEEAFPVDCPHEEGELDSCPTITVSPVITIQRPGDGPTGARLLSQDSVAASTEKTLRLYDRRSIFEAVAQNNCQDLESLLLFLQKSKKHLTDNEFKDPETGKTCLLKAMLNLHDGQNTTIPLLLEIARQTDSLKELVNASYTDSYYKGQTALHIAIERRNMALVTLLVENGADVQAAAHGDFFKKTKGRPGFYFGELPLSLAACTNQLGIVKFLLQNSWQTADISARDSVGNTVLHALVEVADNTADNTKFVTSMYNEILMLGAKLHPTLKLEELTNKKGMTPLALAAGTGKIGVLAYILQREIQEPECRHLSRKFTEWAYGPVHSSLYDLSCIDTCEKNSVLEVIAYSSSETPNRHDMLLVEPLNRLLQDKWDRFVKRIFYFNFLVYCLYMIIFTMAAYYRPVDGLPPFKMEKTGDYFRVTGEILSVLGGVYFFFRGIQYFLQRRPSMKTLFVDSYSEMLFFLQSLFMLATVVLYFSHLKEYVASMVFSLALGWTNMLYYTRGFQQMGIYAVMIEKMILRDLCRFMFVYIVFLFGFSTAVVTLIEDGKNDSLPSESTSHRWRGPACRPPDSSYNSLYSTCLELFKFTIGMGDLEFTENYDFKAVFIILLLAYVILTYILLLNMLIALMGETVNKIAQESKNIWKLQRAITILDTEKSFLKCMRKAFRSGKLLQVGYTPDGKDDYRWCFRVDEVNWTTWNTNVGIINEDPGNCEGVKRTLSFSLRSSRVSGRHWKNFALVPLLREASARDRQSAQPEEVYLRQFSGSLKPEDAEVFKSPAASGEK

Regarding `CC(C)=CCCC(C)C=O` (centres unmarked) [2,6-Dimethyl-5-Heptenal], at TRPV1 [1], the “% Enhancement” value is recorded as 17.5%. Take `CCCCCCC(C)=O` [2-Octanone]: the “% Enhancement” value on TRPV1 [1] came to 19.87%. Turning to `CCCCC[C@H](O)CC(=O)CCc1ccc(O)c(OC)c1` [6-Gingerol], in assay [2] (burning sensation), the “'Hotness' (as log Scoville Units)” value was found to be 4.9 log Scoville Units. For `CCCCC/C=C/C(=O)CCc1ccc(O)c(OC)c1` [6-Shoagol], the “'Hotness' (as log Scoville Units)” value in assay [2] (burning sensation) is listed as 5.1 log Scoville Units. Regarding `C=CCS[S+]([O-])CC=C` (centres unmarked) [Allicin], the “'Hotness' (as log Scoville Units)” value in assay [2] (burning sensation) worked out at 4.0 log Scoville Units. For `CC(=O)OC(C)(C)Cc1ccccc1` [Alpha, Alpha Dimethylphenethyl Acetate], the “% Enhancement” value at TRPV1 [1] came out at 14.64%. Further, the “Percent Enhancement when combined with 3.5 microMolar VBE” value on TRPV1 [3] (enhancer level 50 microMolar) was 300%; at TRPV1 [3] (enhancer level 100 microMolar), 310%; at TRPV1 [3] (enhancer level 200 microMolar), 410%; on TRPV1 [3] (enhancer level 1000 microMolar), 420%. For `C/C=C\C(=O)C1C(C)=CCCC1(C)C` (stereo not drawn) [Alpha-Damascone], at TRPV1 [1], the “% Enhancement” value came to 28.1%.

Regarding `CC(=O)/C=C/C1C(C)=CCCC1(C)C` (stereo not drawn) [Alpha-Ionone], on TRPV1 [1], the “% Enhancement” value stood at 18.84%. Consider `COc1cc(CNC(=O)CCCC/C=C/C(C)C)ccc1O` [Capsaicin, reference compound], for which the “'Hotness' (as log Scoville Units)” value in assay [2] (burning sensation) is 7.2 log Scoville Units. Besides, the “activation level (calcium flux)” value at TRPV1 [4] (concentration of 300 nM) is on record as “about 14127.16 calcium ions”. `O=Cc1ccco1` [Furfural]: the “% Enhancement” value at TRPV1 [1] came to 19.29%. With `CCCC(=O)OC/C=C(\C)CCC=C(C)C` [Geranyl Butyrate], the “% Enhancement” value at TRPV1 [1] came to 23.46%. The same measure, in the same setting: with `CCCCCCCO` [Heptyl Alcohol] the figure was 10.16%.

With `COc1cc(CNC(=O)CCCCC/C=C/C(C)C)ccc1O` [HomoCapsaicin], the “'Hotness' (as log Scoville Units)” value in assay [2] was 6.9 log Scoville Units. In the case of `COc1cc(CNC(=O)CCCCCCCC(C)C)ccc1O` [HomodihydroCapsaicin], the “'Hotness' (as log Scoville Units)” value in assay [2] was determined as 6.9 log Scoville Units. Regarding `C=C(OCC)C1C(C)(C)CC(=O)CC1(C)C` [Kephalis], the “% Enhancement” value at TRPV1 [1] came out at 13.74%. In the case of `COc1cc(CNC(=O)CCCCCC(C)C)ccc1O` [NorhydroCapsaicin], the “'Hotness' (as log Scoville Units)” value in assay [2] is on record as 7.0 log Scoville Units. `COC(Cc1ccccc1)OC` [Phenylacetaldehyde Dimethyl Acetal]: at TRPV1 [1], the “% Enhancement” value is listed as 14.07%. In the case of `O=P([O-])([O-])OP(=O)([O-])[O-].[Na+].[Na+].[Na+].[Na+]` [Tetrasodium Pyrophosphate], the “% Enhancement” value on TRPV1 [1] came out at 15.62%. As for `CCC/C=C/COC(C)=O` [Trans-2-Hexenyl Acetate], on TRPV1 [1], the “% Enhancement” value is recorded as 10.62%. In the case of `CCCCOCc1ccc(O)c(OC)c1` [Vanillyl Butyl Ether], the “'Hotness' (as log Scoville Units)” value in assay [2] (burning sensation) stood at 5.7 log Scoville Units. The “activation level (calcium flux)” value at TRPV1 [4] (concentration of 1 mM) is “approximately 14942.84 calcium ions”. Further, the taste versus control entry in assay [5] (setting [6]) was “improved taste over the control”.

`COc1cc(CCC(C)=O)ccc1O` [Zingerone]: the “'Hotness' (as log Scoville Units)” value in assay [2] (burning sensation) is listed as less than 4.0 log Scoville Units. Further, the taste versus control entry in assay [5] (setting [6]) is “improved taste over the control”.

Consider `C=C(C)C1CC=C(C)C(OC(C)=O)C1` (centres unmarked) [carvyl acetate], for which, at TRPV1 [1], the “% Enhancement” value was 12.83%. As to `C/C=C/C(=O)C1C(C)C=CCC1(C)C` (centres unmarked) [delta-damascone], the “% Enhancement” value at TRPV1 [1] was found to be 28.53%. `C/C=C/c1ccc(OCC)c(O)c1` [vanitrope]: the “direct activation of TRPV1 (TRPV1 activator or not)” value at TRPV1 [4] is reported as “not considered to be a TRPV1 activator”. The taste versus control result in assay [5] (hours 1-3 for bothersome and hours 1-2 for bad aftertaste) was “taste improvement”. Farnesene: at TRPV1 [1], the “% Enhancement” value was found to be 12.33%. Besides, the “Percent Enhancement when combined with 3.5 microMolar VBE” value on TRPV1 [3] (enhancer level 50 microMolar) is recorded as 25%; on TRPV1 [3] (enhancer level 100 microMolar), 100%; at TRPV1 [3] (enhancer level 200 microMolar), 175%; on TRPV1 [3] (enhancer level 1000 microMolar), 400%.

(Values after patent US8962057B2, “Methods for improving taste and oral care compositions with improved taste” (The Procter & Gamble Company, priority 2009, dated 2015).)
